Data: paper PMC9582194, “The effect of helix-inducing constraints and downsizing upon a transcription block survival-derived functional cJun antagonist” (Cell Reports. Physical Science, 2022)
Positions of bridges follow the written chain, without caps; N, C: chain ends. Residues, ends and D or L forms follow the SMILES beside them. No end group written: not given here.

How the values were obtained:
[1] = Peptide fraction helicity by CD at 222 nm, peptide-only samples; type: physicochemical; settings: for fH, peptide fraction helicity: CD signal at 222 nm of peptide-only samples, pH 7.4 phosphate/KF/TCEP buffer, duplicate experiments
Procedure: (§1) The precise nature of the interaction between the cJun DBD and the rationally designed acidic domain of HW1 is unknown. HW1 was, therefore, iteratively truncated from the N terminus (HW2–6) to investigate the effect on cJun binding and cJun/TRE DNA antagonism (Table 1). Peptide fraction helicity (fH) was determined by quantifying the circular dichroism (CD) signal at 222 nm of peptide-only samples (Figure S1). Thermal denaturation experiments were then used to determine the melting temperature (Tm) of peptide-cJun heterodimers, which serves as an approximate measure of target engagement. CD was also used to investigate the functional activity of peptides in antagonizing the cJun/TRE DNA interaction. […] This provides a clear and direct measurement of the proportion of DNA bound to cJun. As antagonist peptide concentration was increased, the peak shifted to overlay with that of free TRE-DNA (Figure S4). For each peptide, the data were fit to a Hill equation to determine half-maximal inhibitory concentration (IC50) values, specific to these assay conditions, providing a clear comparative measure of antagonism. The same 60 amino acid cJun construct, encompassing the entire bZIP domain, was used for all experiments regardless of antagonist peptide length.

cJun = target: T1, cJun (Homo sapiens, UniProt P05412); assay: CD thermal denaturation of peptide-cJun heterodimers (Tm); type: binding; settings: for Tm of peptide-cJun heterodimer: CD ellipticity at 222 nm, 1-90 °C, peptide (5 μM)/cJun (5 μM), 20 mM potassium phosphate, 150 mM potassium fluoride, 2 mM TCEP pH 7.4, two-state fit, duplicate experiments, ± one SD; for ΔTm of cJun heterodimer due to lactamization: cyclized versus its linear (non-lactamized) counterpart
T1 construct: The same 60 amino acid cJun construct, encompassing the entire bZIP domain, was used for all experiments
T1 sequence (P05412 252-315 limits assumed): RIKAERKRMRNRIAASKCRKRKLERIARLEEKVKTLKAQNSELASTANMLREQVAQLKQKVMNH
Procedure: as §1
Figure 2 Iterative N-terminal truncation of HingeW reduces cJun binding and antagonism (A) Thermal denaturation profiles for iteratively truncated peptide (5 μM)/cJun (5 μM) heterodimer samples. (B) CD antagonism data produced by monitoring the shift in a DNA specific peak to provide a direct readout of cJun-DNA binding. Peptides are added at the indicated concentrations to a pre-incubated mixture of cJun (20 μM) and TRE DNA (5 μM). Data points were averaged from triplicate experiments, and error bars indicate one SD. The data were fitted to a Hill equation to determine IC50 values. Some higher peptide concentration data points for HW6 and HW9 are not shown in this plot for clarity.

[2] = target: T2, cJun (60 amino acid construct encompassing the entire bZIP domain) (UniProt P05412 252-315); assay: cell-based or functional assay
T2 sequence (P05412 252-315): as the sequence (P05412 252-315 limits assumed) above

[3] = target: T2, cJun (60 amino acid construct …); assay: CD thermal denaturation; peptide (5 μM) with cJun (5 μM); ellipticity at 222 nm, 1°C to 90°C; 20 mM potassium phosphate, 150 mM potassium fluoride, 2 mM TCEP, pH 7.4; two-state fit gives the Tm of the peptide-cJun heterodimer; duplicate experiments; settings: both partners purified

Row | Molecule | fH, peptide fraction helicity [1] [%] | Tm of peptide-cJun heterodimer (cJun) [°C] | further results
1 | Ac-EAEELVVEEKVLEDEIEQLEERNYALRKEIEDLQKQ-NH2 [HW22] | 37.2 | 54.9 ± 1.2 | –
2 | Ac-EAEELVVEEDVLEEEIKQLEDRNYALRKEIEDLQKQ-NH2 [HW24] | 37.0 | 55.5 ± 1.7 | –
3 | CC[C@H](C)[C@H](NC(=O)[C@H](CCC(=O)O)NC(=O)[C@H](CCCCN)NC(=O)[C@H](CCCNC(=N)N)NC(=O)[C@H](CC(C)C)NC(=O)[C@H](C)NC(=O)[C@H](Cc1ccc(O)cc1)NC(=O)[C@H](CC(N)=O)NC(=O)[C@H](CCCNC(=N)N)NC(=O)[C@H](CCC(=O)O)NC(=O)[C@H](CCC(=O)O)NC(=O)[C@H](CC(C)C)NC(=O)[C@H](CCC(N)=O)NC(=O)[C@H](CCC(=O)O)NC(=O)[C@@H](NC(=O)[C@H](CCC(=O)O)NC(=O)[C@H](CCC(=O)O)NC(=O)[C@H](CCC(=O)O)NC(=O)[C@H](CC(C)C)NC(=O)[C@@H](NC(=O)[C@H](CC(=O)O)NC(=O)[C@H](CCC(=O)O)NC(=O)[C@H](CCC(=O)O)NC(=O)[C@@H](NC(=O)[C@@H](NC(=O)[C@H](CC(C)C)NC(=O)[C@@H]1CC(=O)NCCCC[C@H](NC(C)=O)C(=O)N[C@@H](CCC(=O)O)C(=O)N[C@@H](C)C(=O)N[C@@H](CCC(=O)O)C(=O)N1)C(C)C)C(C)C)C(C)C)[C@@H](C)CC)C(=O)N[C@@H](CCCCN)C(=O)N[C@@H](CC(=O)O)C(=O)N[C@@H](CC(C)C)C(=O)N[C@@H](CCC(N)=O)C(=O)N[C@@H](CC(=O)O)C(=O)N[C@@H](CCC(N)=O)C(N)=O [HW19] (Ac-KEAEDLVVEEDVLEEEIEQLEERNYALRKEIKDLQDQ-NH2; lactam 1-5 (inferred)) | 40.1 | 58.5 ± 1.0 | change in fH due to lactamization ([1]; cyclized versus its linear counterpart): ~1%
4 | CC[C@H](C)[C@H](NC(=O)[C@H](CCC(=O)O)NC(=O)[C@H](CCCCN)NC(=O)[C@H](CCCNC(=N)N)NC(=O)[C@H](CC(C)C)NC(=O)[C@H](C)NC(=O)[C@H](Cc1ccc(O)cc1)NC(=O)[C@H](CC(N)=O)NC(=O)[C@H](CCCNC(=N)N)NC(=O)[C@H](CCC(=O)O)NC(=O)[C@H](CCC(=O)O)NC(=O)[C@H](CC(C)C)NC(=O)[C@H](CCC(N)=O)NC(=O)[C@H](CCC(=O)O)NC(=O)[C@@H](NC(=O)[C@H](CCC(=O)O)NC(=O)[C@@H]1CC(=O)NCCCC[C@H](NC(=O)[C@H](CCC(=O)O)NC(=O)[C@H](CCC(=O)O)NC(=O)[C@@H](NC(=O)[C@@H](NC(=O)[C@H](CC(C)C)NC(=O)[C@H](CCC(=O)O)NC(=O)[C@H](CCC(=O)O)NC(=O)[C@H](C)NC(=O)[C@H](CCC(=O)O)NC(C)=O)C(C)C)C(C)C)C(=O)N[C@@H](C(C)C)C(=O)N[C@@H](CC(C)C)C(=O)N[C@@H](CCC(=O)O)C(=O)N1)[C@@H](C)CC)C(=O)N[C@@H](CCC(=O)O)C(=O)N[C@@H](CC(=O)O)C(=O)N[C@@H](CC(C)C)C(=O)N[C@@H](CCC(N)=O)C(=O)N[C@@H](CCCCN)C(=O)N[C@@H](CCC(N)=O)C(N)=O [HW23] (Ac-EAEELVVEEKVLEDEIEQLEERNYALRKEIEDLQKQ-NH2; lactam 10-14) | – | – | ΔTm of cJun heterodimer due to lactamization (cJun): ~9 °C
5 | CC[C@H](C)[C@H](NC(=O)[C@H](CCC(=O)O)NC(=O)[C@H](CCCCN)NC(=O)[C@H](CCCNC(=N)N)NC(=O)[C@H](CC(C)C)NC(=O)[C@H](C)NC(=O)[C@H](Cc1ccc(O)cc1)NC(=O)[C@H](CC(N)=O)NC(=O)[C@H](CCCNC(=N)N)NC(=O)[C@H](CCC(=O)O)NC(=O)[C@H](CCC(=O)O)NC(=O)[C@H](CC(C)C)NC(=O)[C@H](CCC(N)=O)NC(=O)[C@H](CCC(=O)O)NC(=O)[C@@H](NC(=O)[C@H](CCC(=O)O)NC(=O)[C@H](CCC(=O)O)NC(=O)[C@H](CCC(=O)O)NC(=O)[C@H](CC(C)C)NC(=O)[C@@H](NC(=O)[C@H](CC(=O)O)NC(=O)[C@H](CCC(=O)O)NC(=O)[C@H](CCC(=O)O)NC(=O)[C@@H]1CC(=O)NCCCC[C@H](NC(=O)[C@H](C)NC(=O)[C@H](CCC(=O)O)NC(C)=O)C(=O)N[C@@H](CCC(=O)O)C(=O)N[C@@H](CC(C)C)C(=O)N[C@@H](C(C)C)C(=O)N1)C(C)C)[C@@H](C)CC)C(=O)N[C@@H](CCC(=O)O)C(=O)N[C@@H](CC(=O)O)C(=O)N[C@@H](CC(C)C)C(=O)N[C@@H](CCC(N)=O)C(=O)N[C@@H](CCCCN)C(=O)N[C@@H](CCC(N)=O)C(N)=O [HW21] (Ac-EAKELVDEEDVLEEEIEQLEERNYALRKEIEDLQKQ-NH2; lactam 3-7) | – | – | ΔTm of cJun heterodimer due to lactamization (cJun): ~2 °C
6 | Ac-EAEELVVEEDVLEEEIEQLEERNYALRKEIEDL-NH2 [HW9] | 32.8 | 44.8 ± 1.2 | –
7 | Ac-LARENEELEKEAEELVVEEDVLEEEIEQLEERNYALRKEIEDLQKQLEKL-NH2 [HW2] | 32.8 | 68.5 ± 1.1 | –
8 | Ac-EAEELVVEEDVLEEEIEQLEERNYALRKEIKDLQDQ-NH2 [HW28] | 35.0 | 55.6 ± 1.2 | –
9 | Ac-KEAEDLVVEEDVLEEEIEQLEERNYALRKEIKDLQDQ-NH2 [HW18] | 38.7 | 56.5 ± 1.6 | –
10 | Ac-EAEELVVEEDVLEEEIEQLEERNYALRKEIEDLQ-NH2 [HW16] | 31.2 | 53.8 ± 5.3 | –
11 | Ac-EAKELVDEEDVLEEEIEQLEERNYALRKEIEDLQKQ-NH2 [HW20] | 36.9 | 57.5 ± 1.1 | –
12 | Ac-EAEELVVEEDVLEEEIEQLEEKNKALKDEIEDLQKQY-NH2 (lactam 24-28; SMILES CC[C@H](C)[C@H](NC(=O)[C@H](CCC(=O)O)NC(=O)[C@@H]1CC(=O)NCCCC[C@H](NC(=O)[C@H](CC(N)=O)NC(=O)[C@H](CCCCN)NC(=O)[C@H](CCC(=O)O)NC(=O)[C@H](CCC(=O)O)NC(=O)[C@H](CC(C)C)NC(=O)[C@H](CCC(N)=O)NC(=O)[C@H](CCC(=O)O)NC(=O)[C@@H](NC(=O)[C@H](CCC(=O)O)NC(=O)[C@H](CCC(=O)O)NC(=O)[C@H](CCC(=O)O)NC(=O)[C@H](CC(C)C)NC(=O)[C@@H](NC(=O)[C@H](CC(=O)O)NC(=O)[C@H](CCC(=O)O)NC(=O)[C@H](CCC(=O)O)NC(=O)[C@@H](NC(=O)[C@@H](NC(=O)[C@H](CC(C)C)NC(=O)[C@H](CCC(=O)O)NC(=O)[C@H](CCC(=O)O)NC(=O)[C@H](C)NC(=O)[C@H](CCC(=O)O)NC(C)=O)C(C)C)C(C)C)C(C)C)[C@@H](C)CC)C(=O)N[C@@H](C)C(=O)N[C@@H](CC(C)C)C(=O)N[C@@H](CCCCN)C(=O)N1)C(=O)N[C@@H](CCC(=O)O)C(=O)N[C@@H](CC(=O)O)C(=O)N[C@@H](CC(C)C)C(=O)N[C@@H](CCC(N)=O)C(=O)N[C@@H](CCCCN)C(=O)N[C@@H](CCC(N)=O)C(=O)N[C@@H](Cc1ccc(O)cc1)C(N)=O, cyclized form of the pair HW26/HW27; NΔ20 CΔ7; source: synthetic peptide (Fmoc SPPS, on-resin lactamization, RP-HPLC purified)) [HW27] | – | – | IC50 CD: peptide added to pre-incubated cJun (20 μM) and TRE DNA (5 μM); blocks cJun/TRE DNA binding [2]: 94.1 µM; Tm of the peptide-cJun heterodimer [3]: 58.9 °C
13 | Ac-LEKEAEELVVEEDVLEEEIEQLEERNYALRKEIEDLQKQLEKL-NH2 (truncation NΔ17 CΔ3 of HW1; source: synthetic peptide (Fmoc SPPS, RP-HPLC purified)) [HW3] | – | – | IC50 CD: peptide added to pre-incubated cJun (20 μM) and TRE DNA (5 μM); blocks cJun/TRE DNA binding [2]: 33.7 µM; Tm of the peptide-cJun heterodimer [3]: 67.9 °C
14 | EDVLEEEIEQLEERNYALRKEIEDLQKQLEKLGAP-NH2 (truncation NΔ28 of HW1: the leucine zipper (LZ) only; also called LZ domain of HW1; source: synthetic peptide (Fmoc SPPS, RP-HPLC purified)) [HW6] | – | – | IC50 CD: peptide added to pre-incubated cJun (20 μM) and TRE DNA (5 μM); blocks cJun/TRE DNA binding [2]: 130 µM; Tm of the peptide-cJun heterodimer [3]: 55.1 °C
15 | Ac-EAEELVVEEDVLEEEIEQLEERNYALRKEIEDL-NH2 (truncation NΔ20 CΔ10 of HW1; source: synthetic peptide (Fmoc SPPS, RP-HPLC purified)) [HW9] | – | – | IC50 CD: peptide added to pre-incubated cJun (20 μM) and TRE DNA (5 μM); blocks cJun/TRE DNA binding [2]: 1210 µM; Tm of the peptide-cJun heterodimer [3]: 44.8 °C
